Measured values: US20230125075A1, “Composition Containing Paper Mulberry Extracts” (LG Household & Health Care Ltd., priority 2020, published 2023)
Several values for one entry are separate records, joined by “and”; a condition that tells them apart may be missing. Equal entries are not always repeated.

Tests used:
Type in all cases: cell-based
HepG2 cells = assay: Cholesterol synthesis in HepG2 cells ([14C] acetate incorporation); details: for IC50: positive controls, HepG2 cells
Procedure: To confirm the lipid-cholesterol improvement effect of the plant extracts, an appropriate number of HepG2 cells was seeded and cultured using a IMEM culture medium (containing 10% of FCS, 4.5 g/L of glucose, 4 mM glutamine, 10 μg/ml of insulin, 50 μg/ml of penicillin, 50 μg/ml of streptomycin, and 1% of non-essential amino acids). At this time, the culture medium was replaced every 2 days, and the cells were used for the experiment on the 12th day after seeding.
1 ml of a labeled acetate solution ([^14C] sodium acetate) was added to the cells, and the cells were incubated in a CO2 incubator. After 1 hour of incubation, the culture medium was discarded, the cells were washed with ice-cold PBS, 2 M NaOH was added to detach the cells, and the cells were incubated at 95° C. for 1 hour to induce saponification of lipids. Then, [^3H] cholesterol (about 20,000 dpm/sample) was added as a recovery marker, and lipids were extracted with a chloroform-methanol (2:1 (v/v)) solution. Then, after separating lipides through thin layer chromatohrapy (TLC), a band corresponding to free cholesterol was scraped and placed in a scintillation vial for measurement. The results for the above experiment were expressed as the amount of acetate incorporated per protein (acetate (nmole) incorporated/protein (mg)).
In this experimental example, it was confirmed whether the plant extracts inhibit cholesterol synthesis. As a result of the experiment, the amount of cholesterol was quantified. A decrease in cholesterol level means that a cholesterol improvement effect is obtained.
The effect of the test substance on the intracellular cholesterol content was expressed as a relative ratio when the control group (treated with dimethyl sulfoxide (DMSO) only) was 100% or was expressed as the amount incorporated acetate ([^14C]-acetate (nmole) incorporated/4 h/well). As the measured value increases, the amount of synthesized cholesterol increases. That is, a decrease in cholesterol synthesis indicates improvement in cholesterol.

HUVEC cells = assay: Recovery of reduction in nitric oxide induced by oxLDL (Griess reagent); details: positive control
Procedure: To confirm the blood circulation improvement effect of the plant extracts, recovery of reduction in nitric oxide induced by oxidized low density lipoprotein (oxLDL) was measured. First, HUVEC cells were suspended in a Ham's F-12K (Kaighn's modification) culture medium, and the suspended cells were aliquoted into a culture plate. Then, plant extracts (samples) diluted at various concentrations were added to the culture plate containing the cells. At this time, […]. The sample-treated cells were placed in a 5% CO2 incubator set at 37° C. and cultured for 24 to 48 hours, and then the supernatant was taken and used as an analysis sample.
To analyze nitric oxide, a Griess reagent was prepared by mixing equal amounts of component A and component B. Then, 250 μl of the sample (culture medium) and 50 μl of the Griess reagent were added to a plate and mixed thoroughly. Next, to prepare a sodium nitrite solution, a nitrite standard solution was diluted with distilled water to a concentration between […] (reference sample). Under light-blocked conditions, a mixture of the sample and the Griess reagent was incubated at room temperature for 30 minutes. Thereafter, the absorbance (OD) of the nitrite-containing sample with respect to the reference sample was measured at 548 nm.
In this experiment, it was confirmed whether the level of nitric oxide decreased by oxLDL was recovered by the plant extracts. At this time, as a result of the experiment, the amount of nitric oxide was quantified. Nitric oxide plays a role in dilating blood vessels.

3T3-L1 fibroblasts = assay: Glycerol content in culture medium of 3T3-L1 fibroblasts (lipolysis); details: positive control
Procedure: To confirm the anti-obesity effect of the plant extracts, the content of glycerol in the culture medium of 3T3-L1 fibroblasts was measured.
First, 3T3-L1 fibroblasts were cultured using a DMEM culture medium (proliferation culture medium) containing 10% bovine serum to an appropriate cell number on a plate. Then, using a DMEM culture medium (differentiation culture medium) containing 10% FBS, the cells were cultured until the plate was filled with the cells, and then were further cultured for 2 to 3 days. The existing culture medium was replaced with a culture medium to induce cell differentiation, which contains insulin (5 μg/mL), dexamethasone (0.25 μM), and 3-isobutyl-1-methylxanthine (0.5 mM), and was followed by incubation for 2 to 3 days. Afterwards, the culture medium was replaced with a medium containing only insulin and the cells were incubated for 2 to 3 days, and then the culture medium was replaced again with a DMEM culture medium containing 10% FBS and the cells were again incubated for 6 to 8 days (incubated until a point at which fat accumulation is observed in the cells). The anti-obesity substance was added before or after differentiation induction according to the purpose of the experiment. The cell culture medium was centrifuged at 10,000 rpm for 10 minutes, and the supernatant was obtained using a Pasteur pipette. The obtained supernatant was transferred to a plate and heated at 65° C. for 8 min to inactivate enzymes released from the cells. Next, a glycerol probe was dissolved in 220 μl of DMSO, and a glycerol enzyme mixture (Cayman Chemical, USA; Item No. 10010962) was dissolved in an assay buffer. These solutions were shielded from light and stored at −20° C. until experiment was performed. A 1 mM glycerol standard solution was prepared by diluting 10 μl of a glycerol standard solution with 990 μl of an analysis buffer. Then, the 1 mM glycerol standard solution was thoroughly mixed, 0, 2, 4, 6, 8, and 10 μl of the 1 Mm glycerol standard solution were respectively added to each well, and the analysis buffer was added to the each well to adjust the total volume to 50 μl. 50 μl of the sample (culture medium in which enzymes are inactivated) was added to each well. A reaction mixture containing 46 μl of the analysis buffer, 2 μl of the glycerol probe, and 2 μl of the glycerol enzyme mixture was prepared. 50 μl of the reaction mixture was added to each well containing the standard solution and the sample and was thoroughly mixed. Then, each well was shielded from light and left at room temperature for 30 minutes. Then, absorbance was measured at 570 nm.
As a result of the experiment, the amount of glycerol was quantified. Glycerol is a by-product of lipolysis. Accordingly, as the level of glycerol increases, an anti-obesity effect increases.
When lipolysis is enhanced by the test substance, the amount of triglycerides accumulated in adipocytes decreases and the amount of glycerol released increases. Accordingly, an increase in the amount of released glycerol means an increase in decomposition of triglycerides. Through this experiment, it can be confirmed that the test substance has an anti-obesity effect.

C2C12 cells = assay: Glucose uptake measurement (2-NBDG method, FACS); details: positive control
Procedure: To confirm the blood glucose control effect of the plant extracts, the glucose uptake capacity of cells treated with the plant extracts was measured. First, C2C12 cells were seeded on a 96-well culture plate at a cell density of 1×10^4 cells/well. When a state of subconfluence was reached, which is within 24 hours, the experiment was started.
When saturated, the culture medium was removed, and 100 μl of a fresh medium containing 10 μM 2-NBDG or 100 μl of a fresh medium not containing 10 μM 2-NBDG (control) was added to each well. At this time, a test substance to be evaluated was included in the culture medium. That is, the cells were treated with the test substance by changing the culture medium. After treatment for 1 hour, wells were washed 2 times with pre-cold PBS. Then, cells in each well were collected and resuspended in 200 μl of a pre-cold medium, and the nuclei of the cells were stained with 1 μg/mL of propidium iodine (PI).
Measurement was performed with FACS for about 20 seconds. Event results of about 2,000 single cells were collected, and statistical analysis was performed on the event results.
In this experiment, it was determined whether the plant extracts promote intracellular glucose uptake. As a result of the experiment, the amount of glucose uptake into cells was quantified. That is, an increase in glucose uptake into cells means that the blood glucose control effect is improved.
As the value of measured fluorescence intensity increases, the glucose absorption rate increases. An increase in glucose absorption indicates a decrease in blood glucose levels.

U266 cells = assay: IgE secretion measurement, ELISA
Procedure: To confirm the anti-allergic effect of the plant extracts, the secretion amount of immunoglobulin E was measured. First, U266 cells were treated with a test substance while culturing the U266 cells in an RPMI1640 culture medium containing 10% FBS for 3 days. After 3 days of treatment with the test substance, the cell culture medium was harvested. IgE capture antibody was added to the plate and left for 1 day. The plate was blocked with 2% BSA. The collected culture medium was added to the plate and mixed by shaking. IgE detection antibody was added to the plate and mixed by shaking. Streptavidin-HRP was added to the plate, and after blocking light, the mixture was shaken. A substrate was added to the plate, and after blocking light, the mixture was mixed by shaking until the color of the mixture changed to blue. After confirming that the color had changed, a 2 N sulfuric acid solution was added to the plate and mixed by shaking until the color changed to yellow. After measuring the absorbance at 450 nm and 570 nm, results were analyzed by subtracting the absorbance at 570 nm from the absorbance at 450 nm. At this time, as a positive control, 1 μM dexamethasone was used, and as a result, an inhibitory effect of 32% was observed. As a result of treatment with 0.1 μM hydrocortisone, an inhibitory effect of 35% was observed.
As a result of the experiment, the amount of IgE was quantified. As the level of IgE decreases, the anti-allergic effect increases.

CC(C)c1c(C(=O)Nc2ccccc2)c(-c2ccccc2)c(-c2ccc(F)cc2)n1CC[C@@H](O)C[C@@H](O)CC(=O)O [Atorvastatin]
activity at 0.0704 µM (HepG2 cells; Homo sapiens, HepG2, positive control, 70.4 nM, read-out: Lipid-cholesterol synthesis (% of control)): 50% | IC50 (HepG2 cells; Homo sapiens): 70.4 nM | Lipid-cholesterol synthesis (HepG2 cells; positive control, 70.4 nM): 50.00 % of control | Lipid-cholesterol synthesis (% of control) (HepG2 cells; positive control, 70.4 nM): 50.00 (Atorvastatin % of control | Lipid-cholesterol synthesis (% of control) (HepG2 cells; positive control, 70.4 nM, 0.0704 µM): 50.00 (Atorvastatin % of control | Lipid-cholesterol synthesis (HepG2 cells; positive control, Atorvastatin 70.4 nM): 50.00 % of control

CC(C)c1nc(N(C)S(C)(=O)=O)nc(-c2ccc(F)cc2)c1/C=C/[C@@H](O)C[C@@H](O)CC(=O)O [Rosuvastatin]
recovery of nitric oxide reduced by oxLDL (HUVEC cells; 0.1 μM): 100% | Blood circulation-NO Conc. (HUVEC cells; 0.05 ppm): 98.29 % of control | Blood circulation-NO Conc. (% of control) (HUVEC cells; 0.05 ppm): 98.29 % of control and 98.29 (Rosuvastatin % of control | Blood circulation-NO Conc. (HUVEC cells; Rosuvastatin 0.05 ppm): 98.29 % of control | Blood circulation-NO Conc. (% of control) (HUVEC cells; Rosuvastatin 0.05 ppm): 98.29 % of control

CC(C)NCC(O)c1ccc(O)c(O)c1 (centres unmarked) [Isoproterenol]
activity at 10 µM (3T3-L1 fibroblasts; Mus musculus, 3T3-L1, 10 μM, read-out: Anti-obesity-Glycerol Conc. (% of control)): 872% | Anti-obesity-Glycerol Conc. (3T3-L1 fibroblasts; 10 pM): 872.36 % of control | Anti-obesity-Glycerol Conc. (3T3-L1 fibroblasts; 10 μM): 872.36 % of control | Anti-obesity-Glycerol Conc. (% of control) (3T3-L1 fibroblasts; 10 μM): 872.36 (Isoproterenol % of control | Anti-obesity-Glycerol Conc. (3T3-L1 fibroblasts; Isoproterenol 10 μM): 872.36 % of control

CCC(C)(C)C(=O)O[C@H]1C[C@@H](C)C=C2C=C[C@H](C)[C@H](CC[C@@H]3C[C@@H](O)CC(=O)O3)[C@H]21 [simvastatin]
IC50 (HepG2 cells; Homo sapiens): 31.8 nM

CN(C)C(=N)N=C(N)N [Metformin]
activity at 1000 µM (C2C12 cells; Mus musculus, C2C12, 1 mM, read-out: Blood glucose-Glucose absorption (% of control)): 184% | Blood glucose-Glucose absorption (C2C12 cells; 1 mM): 183.77 % of control | Blood glucose-Glucose absorption (% of control) (C2C12 cells; 1 mM): 183.77 (Metformin % of control | increase effect on glucose uptake (C2C12 cells; 1 mM): 180% | Blood glucose-Glucose absorption (C2C12 cells; Metformin 1 mM): 183.77 % of control

CCCCCCCCCCC[C@@H](C[C@@H]1OC(=O)[C@H]1CCCCCC)OC(=O)[C@H](CC(C)C)NC=O [orlistat]
increase of glycerol compared to the negative control group (3T3-L1 fibroblasts; 0.5 ppm): 160%

C[C@@H]1C[C@H]2[C@@H]3CCC4=CC(=O)C=C[C@]4(C)[C@@]3(F)[C@@H](O)C[C@]2(C)[C@@]1(O)C(=O)CO [Dexamethasone]
activity at 1 µM (U266 cells; Homo sapiens, U-266, positive control, 1 uM, read-out: Anti-allergy-IgE secretion (% of control)): 67.3% | inhibition at 1 µM (U266 cells; Homo sapiens, U-266, positive control, 1 μM, read-out: inhibitory effect on IgE secretion): 32% | Anti-allergy-IgE secretion (U266 cells; positive control, 1 uM): 67.27 % of control | Anti-allergy-IgE secretion (% of control) (U266 cells; positive control, 1 uM): 67.27 (Dexamethasone % of control | Anti-allergy-IgE secretion (U266 cells; positive control, Dexamethasone 1 uM): 67.27 % of control

C[C@]12CCC(=O)C=C1CC[C@@H]1[C@@H]2[C@@H](O)C[C@@]2(C)[C@H]1CC[C@]2(O)C(=O)CO [hydrocortisone]
inhibition at 0.1 µM (U266 cells; Homo sapiens, U-266, 0.1 μM, read-out: inhibitory effect on IgE secretion): 35%
